# From ChEMBL document CHEMBL2040787, “Synthesis and carbonic anhydrase inhibitory properties of novel bromophenols and their derivatives including natural products: vidalol B” (Eur J Med Chem, 2012)
# What was measured:
# Carbonic anhydrase 1 = Carbonic anhydrase 1 (Homo sapiens, UniProt P00915); test: Noncompetitive inhibition of human CA1 using 4NPA as substrate for 3 mins by Lineweaver burk plot analysis
# Carbonic anhydrase 2 = Carbonic anhydrase 2 (Homo sapiens, UniProt P00918); test: Inhibition of human CA2 using 4NPA as substrate for 3 mins by Lineweaver burk plot analysis
# Carbonic anhydrase 4 = Carbonic anhydrase 4 (Homo sapiens, UniProt P22748); test: Inhibition of human CA4 using 4NPA as substrate for 3 mins by Lineweaver burk plot analysis
# Carbonic anhydrase 6 = Carbonic anhydrase 6 (Homo sapiens, UniProt P23280); test: Inhibition of human CA6 using 4NPA as substrate for 3 mins by Lineweaver burk plot analysis
# Carbonic anhydrase 6, sequence (P23280 whole entry): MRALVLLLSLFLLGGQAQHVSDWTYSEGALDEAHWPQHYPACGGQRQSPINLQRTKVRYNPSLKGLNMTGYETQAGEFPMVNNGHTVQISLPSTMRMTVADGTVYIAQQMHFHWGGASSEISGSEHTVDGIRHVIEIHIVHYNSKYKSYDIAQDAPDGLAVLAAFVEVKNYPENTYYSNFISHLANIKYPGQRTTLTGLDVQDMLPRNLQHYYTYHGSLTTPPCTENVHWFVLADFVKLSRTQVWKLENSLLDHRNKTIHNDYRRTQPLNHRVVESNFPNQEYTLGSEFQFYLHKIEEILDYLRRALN
# Carbonic anhydrase 4, sequence (P22748 whole entry): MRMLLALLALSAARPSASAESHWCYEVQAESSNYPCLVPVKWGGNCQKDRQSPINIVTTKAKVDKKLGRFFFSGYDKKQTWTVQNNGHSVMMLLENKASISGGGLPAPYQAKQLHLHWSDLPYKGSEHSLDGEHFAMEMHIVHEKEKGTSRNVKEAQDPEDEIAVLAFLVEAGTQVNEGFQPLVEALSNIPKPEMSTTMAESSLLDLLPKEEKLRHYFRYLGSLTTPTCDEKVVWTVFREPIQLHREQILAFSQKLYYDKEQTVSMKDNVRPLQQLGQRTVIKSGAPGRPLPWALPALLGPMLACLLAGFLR
# Carbonic anhydrase 1, sequence (P00915 whole entry): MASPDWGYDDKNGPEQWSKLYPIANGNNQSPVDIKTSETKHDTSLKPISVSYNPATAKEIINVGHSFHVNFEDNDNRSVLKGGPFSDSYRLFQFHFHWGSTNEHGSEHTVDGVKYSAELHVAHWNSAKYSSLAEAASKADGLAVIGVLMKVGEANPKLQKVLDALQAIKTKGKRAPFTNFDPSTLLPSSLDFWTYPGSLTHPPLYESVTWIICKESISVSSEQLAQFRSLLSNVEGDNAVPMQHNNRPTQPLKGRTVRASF
smiles,measurement,setting,value
COc1ccc(Cc2ccc(OC)c(OC)c2)cc1OC,Ki,Carbonic anhydrase 1,537 µM
same,Ki,Carbonic anhydrase 2,59.1 µM
same,Ki,Carbonic anhydrase 4,145 µM
same,Ki,Carbonic anhydrase 6,382 µM
COc1c(Br)c(Br)c(Cc2c(Br)c(Br)c(OC)c(OC)c2Br)c(Br)c1OC,Ki,Carbonic anhydrase 1,43.5 µM
same,Ki,Carbonic anhydrase 2,35.5 µM
same,Ki,Carbonic anhydrase 4,32.7 µM
same,Ki,Carbonic anhydrase 6,29.7 µM
Oc1ccc(Cc2ccc(O)c(O)c2)cc1O,Ki,Carbonic anhydrase 1,18.4 µM
same,Ki,Carbonic anhydrase 2,5.64 µM
same,Ki,Carbonic anhydrase 4,7.64 µM
same,Ki,Carbonic anhydrase 6,13.7 µM
COc1ccccc1 [ANISOLE],Ki,Carbonic anhydrase 6,235 µM
O=C(O)c1ccc(O)c(O)c1 [PROTOCATECHUIC ACID],Ki,Carbonic anhydrase 4,2.45 µM
COc1ccc(C(=O)O)cc1OC [VERATRIC ACID],Ki,Carbonic anhydrase 4,6.48 µM
same,Ki,Carbonic anhydrase 6,24.4 µM
